Measurements from US10941143B2, “Imidazo [1,5-a]pyridine compounds and their use” (Alterity Therapeutics Limited, priority 2019, dated 2021).

Tested on: human neuroblastoma line BE(2)-M17 (M17) cells
Test: Measurement of Fe efflux from cells
Assay type: cell-based
Conditions: M17 cells pre-loaded with 57Fe, compound 20 μM for 2 h, percentage increase of Fe in media relative to media without compound, read-out: % Fe Efflux Range
Method: Method I: Measurement of Fe Efflux from Cells
Compounds of the current invention were assessed for their ability to efflux iron (Fe) from a cell using the following protocol.
The human neuroblastoma line BE(2)-M17 (M17) cell cultures were acquired from Sigma Aldrich (Catalogue #: 95011816). M17 Cells were maintained in Opti-MEM reduced serum media supplemented with 10% fetal bovine serum (Bovogen, SFBSF) and passaged twice weekly. Cells were cultured at 37° C. in the presence of 5% CO2. Culture supplies were sourced from Thermo Fisher unless otherwise stated.
A solution of ^57Fe cold isotope was prepared by dissolving ^57Fe metal (>95% enrichment, Trace Sciences International) in concentrated HCl to give a final concentration of 573 mM. From this master solution, a 10 mM working solution was prepared in sterile water. The working solution was used within two months of preparation.
M17 cells were loaded with iron initially by seeding into 48-well plates at a density of 0.15×10^6 cells per well in 0.5 mL media. After 48 h, old media was discarded. Fresh media was supplemented with 20 μM ^57Fe isotope, from the 10 mM ^57Fe working solution. Cells received 0.2 mL of this ^57Fe enriched media and were returned to the incubator for 20 h. The ability of experimental compounds to efflux iron was determined by the dissolution of compounds in DMSO and diluted in Hanks' Balanced Salt Solution (HBSS) for treatment of M17 cells. After ^57Fe incubation, cells were rinsed twice with HBSS and treated with 0.15 mL trial compound for 2 h at a concentration of 20 μM. All assays included a relevant vehicle (0.4%-0.8% DMSO) as well as a positive control (20 μM). Following the treatment period, 0.1 mL of media was collected from cells and the extracellular ^57Fe content was analysed via inductively coupled mass spectrometry (ICP-MS, Agilent 7700x series instrument).
To perform this protocol the following supplies were purchased from Sigma Aldrich: anhydrous dimethyl sulfoxide (DMSO, Catalogue #: 276855), Hanks' Balanced Salt Solution supplemented with 20 mM HEPES and 4.2 mM Sodium Bicarbonate (HBSS, pH: 7.4, Catalogue #: H1387).
After 2 h the Fe levels in the media were measured and the increase determined as a percentage increase relative to the cell media in the absence of the compound.

Structure (SMILES) | activation at 20 µM [%]
COc1cccnc1-c1nc(-c2ccccc2O)n2ccccc12 [Compound 3, 2-(1-(3-Methoxypyridin-2-yl)imidazo[1,5-a]pyridin-3-yl)phenol] | 30 to 100
Oc1ccccc1-c1nc(-c2ncccc2O)c2ccccn12 [Compound 4, 2-(3-(2-Hydroxyphenyl)imidazo[1,5-a]pyridin-1-yl)pyridin-3-ol] | > 150
Oc1ccc(Br)cc1-c1nc(-c2ccccc2)n2ccccc12 [Compound 6] | < 30
Oc1ccccc1-c1nc(-c2cc(Cl)cc(Cl)c2O)n2ccccc12 [Compound 7] | < 30
Oc1ccccc1-c1nc(-c2cccc(F)c2O)n2ccccc12 [Compound 10, 2-Fluoro-6-(1-(2-hydroxyphenyl)imidazo[1,5-a]pyridin-3-yl)phenol] | 30 to 100
N#Cc1ccccc1-c1nc(-c2ccccc2O)c2ccccn12 [Compound 16, 2-(1-(2-Hydroxyphenyl)imidazo[1,5-a]pyridin-3-yl)benzonitrile] | < 30
Cc1ccc(O)c(-c2nc(-c3ccccc3O)c3ccccn23)c1 [Compound 17] | < 30
Oc1ccccc1-c1nc(-c2c(O)cccc2F)n2ccccc12 [Compound 18, 3-Fluoro-2-(1-(2-hydroxyphenyl)imidazo[1,5-a]pyridin-3-yl)phenol] | 30 to 100
COC(=O)c1ccccc1-c1nc(-c2ccccc2O)c2ccccn12 [Compound 20] | < 30
Oc1ccccc1-c1nc(-c2cc(Cl)cc(Cl)c2)n2ccccc12 [Compound 21] | < 30
COC(=O)c1ccc(O)c(-c2nc(-c3ccccc3O)c3ccccn23)c1 [Compound 22, Methyl 4-hydroxy-3-(1-(2-hydroxyphenyl)imidazo[1,5-a]pyridin-3-yl)benzoate] | 30 to 100
Oc1ccccc1-c1nc(-c2cc(F)cc(F)c2O)n2ccccc12 [Compound 23] | < 30
Oc1ccccc1-c1nc(-c2c(Cl)cccc2Cl)n2ccccc12 [Compound 24] | < 30
COC(=O)c1ccc(-c2nc(-c3ccccc3O)c3ccccn23)cc1 [Compound 25] | < 30
Oc1ccccc1-c1nc(-c2cccc(Cl)c2)n2ccccc12 [Compound 27] | < 30
Oc1ccccc1-c1nc(-c2ccc(Cl)cc2)n2ccccc12 [Compound 29] | < 30
Oc1c(F)cccc1-c1nc(-c2cccc(Br)c2O)c2ccccn12 [Compound 31] | < 30
Oc1c(Cl)cccc1-c1nc(-c2cccc(Br)c2O)c2ccccn12 [Compound 32] | 30 to 100
Oc1c(F)cc(F)cc1-c1nc(-c2cccc(Br)c2O)c2ccccn12 [Compound 33] | < 30
Oc1cccc(F)c1-c1nc(-c2cccc(Br)c2O)c2ccccn12 [Compound 34] | 30 to 100
Oc1cccc(Cl)c1-c1nc(-c2cccc(Br)c2O)c2ccccn12 [Compound 35] | < 30

Structure (SMILES) | activation at 20 µM [%]
Oc1ccccc1-c1nc(-c2cccc(F)c2O)c2ccccn12 [Compound 37] | < 30
Oc1cccc(F)c1-c1nc(-c2cccc(F)c2O)c2ccccn12 [Compound 38] | 30 to 100
Oc1cccc(Cl)c1-c1nc(-c2cccc(F)c2O)c2ccccn12 [Compound 39] | 30 to 100
Oc1c(F)cccc1-c1nc(-c2cccc(F)c2O)n2ccccc12 [Compound 40] | 30 to 100
Oc1c(F)cccc1-c1nc(-c2cccc(Cl)c2O)n2ccccc12 [Compound 41, 2-Chloro-6-(1-(3-fluoro-2-hydroxyphenyl)imidazo[1,5-a]pyridin-3-yl)phenol] | 30 to 100
Oc1ccc(Cl)cc1-c1nc(-c2cccc(F)c2O)c2ccccn12 [Compound 42] | 30 to 100
Oc1cc(F)c(Br)cc1-c1nc(-c2cccc(F)c2O)n2ccccc12 [Compound 44] | 30 to 100
Oc1cc(F)c(Br)cc1-c1nc(-c2c(O)cccc2Cl)n2ccccc12 [Compound 46] | < 30
Oc1cc(F)ccc1-c1nc(-c2c(O)cccc2F)n2ccccc12 [Compound 49] | < 30
Oc1cc(F)ccc1-c1nc(-c2cccc(F)c2O)n2ccccc12 [Compound 50] | 30 to 100
Oc1cc(F)ccc1-c1nc(-c2cc(F)ccc2O)n2ccccc12 [Compound 51] | < 30
COc1cccnc1-c1nc(-c2c(O)cccc2F)n2ccccc12 [Compound 52] | < 30
COc1cccnc1-c1nc(-c2cc(F)ccc2O)n2ccccc12 [Compound 56, 4-Fluoro-2-(1-(3-methoxypyridin-2-yl)imidazo[1,5-a]pyridin-3-yl)phenol] | 30 to 100
COc1cccnc1-c1nc(-c2cc(Cl)cc(Cl)c2O)n2ccccc12 [Compound 59] | < 30
COc1cccnc1-c1nc(-c2cc(C)ccc2O)n2ccccc12 [Compound 61] | 30 to 100
Oc1cc(F)ccc1-c1nc(-c2cccc(Cl)c2O)n2ccccc12 [Compound 63] | < 30
O=[N+]([O-])c1ccccc1-c1nc(-c2ccccc2O)c2ccccn12 [Compound 77] | < 30
Oc1cccnc1-c1nc(-c2c(O)cccc2F)n2ccccc12 [Compound 79] | 100 to 150
Oc1cccnc1-c1nc(-c2c(O)cccc2Cl)n2ccccc12 [Compound 80] | 30 to 100
Oc1cccnc1-c1nc(-c2cccc(F)c2O)n2ccccc12 [Compound 81, 2-(3-(3-Fluoro-2-hydroxyphenyl)imidazo[1,5-a]pyridin-1-yl)pyridin-3-ol] | > 150
Oc1cccnc1-c1nc(-c2cccc(Cl)c2O)n2ccccc12 [Compound 82] | 30 to 100

Structure (SMILES) | activation at 20 µM [%]
Oc1ccc(F)cc1-c1nc(-c2ncccc2O)c2ccccn12 [Compound 83] | 100 to 150
Oc1cccnc1-c1nc(-c2cc(F)cc(F)c2O)n2ccccc12 [Compound 84, 2-(3-(3,5-Difluoro-2-hydroxyphenyl)imidazo[1,5-a]pyridin-1-yl)pyridin-3-ol] | > 150
Oc1cccnc1-c1nc(-c2cc(Cl)cc(Cl)c2O)n2ccccc12 [Compound 85] | 30 to 100
Cc1ccc(O)c(-c2nc(-c3c(O)cccc3F)n3ccccc23)c1 [Compound 87] | < 30
Oc1ccc(Cl)cc1-c1nc(-c2ncccc2O)c2ccccn12 [Compound 92] | 100 to 150
Oc1cc(Cl)ccc1-c1nc(-c2ncccc2O)c2ccccn12 [Compound 93] | 30 to 100
Cc1ccc(O)c(-c2nc(-c3ncccc3O)c3ccccn23)c1 [Compound 94] | 30 to 100
Oc1ccccc1-c1nc(-c2ncccc2O)n2ccccc12 [Compound 95, 2-(1-(2-Hydroxyphenyl)imidazo[1,5-a]pyridin-3-yl)pyridin-3-ol] | 30 to 100
Oc1cc(C(F)(F)F)ccc1-c1nc(-c2cccc(F)c2O)n2ccccc12 [Compound 98, 2-(3-(3-Fluoro-2-hydroxyphenyl)imidazo[1,5-a]pyridin-1-yl)-5-(trifluoromethyl)phenol] | < 30
COc1ccccc1-c1nc(-c2ccc(Cl)cc2O)n2ccc(C)cc12 [Compound 100, 5-Chloro-2-(1-(2-methoxyphenyl)-7-methylimidazo[1,5-a]pyridin-3-yl)phenol] | < 30
Oc1ccccc1-c1nc(-c2ccccc2O)n2ncccc12 [Compound 102, 2,2′-(Imidazo[1,5-b]pyridazine-5,7-diyl)diphenol] | < 30
Oc1ccccc1-c1nc(-c2cccc(F)c2O)n2ncccc12 [Compound 103] | 30 to 100
Oc1ccccc1-c1nc(-c2cccc(Cl)c2O)n2ncccc12 [Compound 104] | < 30
Oc1ccccc1-c1nc(-c2ccccc2O)n2cccnc12 [Compound 107, 2,2′-(Imidazo[1,5-a]pyrimidine-6,8-diyl)diphenol] | 30 to 100
Cc1cccc(-c2nc(-c3ccccc3O)c3ncccn23)c1O [Compound 108] | < 30
Oc1cnccc1-c1nc(-c2ccccc2O)n2ccccc12 [Compound 110] | > 150
Oc1cnccc1-c1nc(-c2cccc(F)c2O)n2ccccc12 [Compound 111] | 100 to 150
Oc1cnccc1-c1nc(-c2cccc(Cl)c2O)n2ccccc12 [Compound 112] | 100 to 150
Oc1cnccc1-c1nc(-c2cc(F)cc(F)c2O)n2ccccc12 [Compound 114, 4-(3-(3,5-Difluoro-2-hydroxyphenyl)imidazo[1,5-a]pyridin-1-yl)pyridin-3-ol] | 100 to 150
Oc1ccccc1-c1nc(-c2ncccc2O)c2cccnn12 [Compound 120, 2-(7-(2-Hydroxyphenyl)imidazo[1,5-b]pyridazin-5-yl)pyridin-3-ol] | 100 to 150
